Measurements taken from ChEMBL document CHEMBL1158514, “Molecular design of small organic molecules based on structural information for a conformationally constrained peptide that binds to G-CSF receptor” (Bioorg Med Chem Lett, 2010).
pKd: −log10 of the molar value.

Target: T1, Granulocyte colony-stimulating factor receptor (Homo sapiens, UniProt Q99062)
T1 sequence (Q99062 whole entry): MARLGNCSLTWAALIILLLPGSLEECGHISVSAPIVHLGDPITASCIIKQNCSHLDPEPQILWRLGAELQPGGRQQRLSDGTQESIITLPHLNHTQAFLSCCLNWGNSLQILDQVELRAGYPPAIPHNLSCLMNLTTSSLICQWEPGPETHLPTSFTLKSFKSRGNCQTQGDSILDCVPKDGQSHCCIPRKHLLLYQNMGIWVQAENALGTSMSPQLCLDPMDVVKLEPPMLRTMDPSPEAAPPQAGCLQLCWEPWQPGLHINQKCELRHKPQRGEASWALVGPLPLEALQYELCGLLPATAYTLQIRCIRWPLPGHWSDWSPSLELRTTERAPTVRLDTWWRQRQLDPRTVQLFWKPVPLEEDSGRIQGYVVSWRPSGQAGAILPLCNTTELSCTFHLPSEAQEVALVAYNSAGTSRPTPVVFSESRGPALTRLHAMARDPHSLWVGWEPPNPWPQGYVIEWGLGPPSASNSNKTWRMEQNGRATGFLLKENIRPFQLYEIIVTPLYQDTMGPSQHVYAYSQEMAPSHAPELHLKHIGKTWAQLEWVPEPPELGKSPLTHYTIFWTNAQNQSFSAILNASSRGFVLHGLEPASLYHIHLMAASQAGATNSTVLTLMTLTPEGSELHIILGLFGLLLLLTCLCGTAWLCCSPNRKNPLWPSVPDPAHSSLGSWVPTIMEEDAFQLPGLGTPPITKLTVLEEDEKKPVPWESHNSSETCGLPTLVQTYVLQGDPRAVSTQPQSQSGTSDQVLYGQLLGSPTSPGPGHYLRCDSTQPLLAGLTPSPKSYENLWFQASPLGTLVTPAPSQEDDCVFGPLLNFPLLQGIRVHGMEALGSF
Experiment: Binding affinity to granulocyte colony stimulating factor receptor by SPR biosensor technique
Settings: for pKd: read-out: Kd; call rule not given here

pKd	Kd	Structure (SMILES)
4.33	–	CC(C)CCOc1cc(CN(CCC(=O)O)c2cccc(CCC(N)=O)c2)cc(OCCCN)c1
–	Not Active	CC(C)CCOc1cc(OCCCN)cc(-c2ccc(CCC(N)=O)c(CCC(=O)O)c2)c1
–	Not Active	CC(C)CCOc1cc(CN(CCC(N)=O)c2cccc(CCC(=O)O)c2)cc(OCCCN)c1
4.70	–	CC(C)CCOc1cc(OCCCN)cc(-c2ccc(CCC(=O)O)c(CCC(N)=O)c2)c1
